Results on 15 compounds are retold here after ChEMBL document CHEMBL1122012, “Adenosine receptors: targets for future drugs” (J Med Chem, 1982).

Activity calls are given as the source filed them. No cut-off for these calls is given here.

Assay [1] deals with T1, Adenosine receptor A2a (Cavia porcellus, UniProt P46616). The assay can be described thus: biochemical.
Description: (§1) Antagonist binding of N6-cyclohexyl-[3H]-adenosine to guinea pig brain
Assay [2] has as its target T2, Adenosine A2 receptor (Homo sapiens) (UniProt P29275+P29274). Particulars: brain.
The target in assay [3] is T3, Adenosine receptor (Homo sapiens) (UniProt P30542+P29275+P0DMS8+P29274).
For assay [4], the target named is T4, Adenosine receptor A1 (Homo sapiens) (UniProt P30542).
T4 sequence (whole entry): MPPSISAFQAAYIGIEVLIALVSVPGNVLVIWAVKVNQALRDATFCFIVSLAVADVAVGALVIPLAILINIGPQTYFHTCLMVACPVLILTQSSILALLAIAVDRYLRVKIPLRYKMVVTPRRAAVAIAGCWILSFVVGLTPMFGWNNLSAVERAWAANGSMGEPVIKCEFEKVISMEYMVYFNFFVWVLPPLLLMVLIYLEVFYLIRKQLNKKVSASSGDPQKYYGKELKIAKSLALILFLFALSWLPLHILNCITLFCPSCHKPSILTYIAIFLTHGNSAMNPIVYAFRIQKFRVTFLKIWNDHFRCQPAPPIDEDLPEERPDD
Particulars: brain.

The target in another assay is T5, Adenosine receptor A1 (Bos taurus, UniProt P28190).
T5 sequence (P28190 whole entry): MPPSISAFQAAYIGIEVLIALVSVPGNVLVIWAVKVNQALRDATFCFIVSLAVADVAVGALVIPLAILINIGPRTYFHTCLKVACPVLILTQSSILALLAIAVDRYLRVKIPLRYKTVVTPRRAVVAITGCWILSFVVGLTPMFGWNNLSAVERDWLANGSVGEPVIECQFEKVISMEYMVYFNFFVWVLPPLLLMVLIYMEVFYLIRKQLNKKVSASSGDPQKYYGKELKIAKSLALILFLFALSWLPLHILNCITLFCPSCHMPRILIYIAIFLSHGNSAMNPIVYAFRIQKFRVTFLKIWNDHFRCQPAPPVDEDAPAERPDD

Assay [5] addresses T3, Adenosine receptor (Homo sapiens). The source holds these as a separate data set.
Assay [6] concerns the target T2, Adenosine A2 receptor (Homo sapiens). Particulars: brain. This is another data set of the same source.
For assay [7], the target named is T4, Adenosine receptor A1 (Homo sapiens). The assay can be described thus: Affinity constant for inhibition of A1 receptor control of adenylate cyclase in adipocytes, heart and brain cells; Inactive. In kind it is functional, cell-based.
Assay [8] deals with T2, Adenosine A2 receptor (Homo sapiens). In words: Affinity constant for A2 receptor control of adenylate cyclase in adipocytes, heart and brain cells; Inactive. Type of assay: functional, cell-based.
Assay [9] addresses T1, Adenosine receptor A2a. The assay can be described thus: biochemical. This is another data set of the same source.
Description: as §1
Assay [10] deals with T6, Adenosine receptor (Rattus norvegicus, UniProt P29276+P25099+P30543+P28647). The assay can be described thus: Antagonist binding of rN6-cyclohexyl-[3H]adenosine to rat brain. Type of assay: functional.
Assay [11] has as its target T6, Adenosine receptor. In kind it is functional.
Assay [12] deals with T6, Adenosine receptor.
Description: Antagonist binding of L-N6-phenyl-isopropyl)-[3H]adenosine to rat fat

T1 sequence (P46616 whole entry): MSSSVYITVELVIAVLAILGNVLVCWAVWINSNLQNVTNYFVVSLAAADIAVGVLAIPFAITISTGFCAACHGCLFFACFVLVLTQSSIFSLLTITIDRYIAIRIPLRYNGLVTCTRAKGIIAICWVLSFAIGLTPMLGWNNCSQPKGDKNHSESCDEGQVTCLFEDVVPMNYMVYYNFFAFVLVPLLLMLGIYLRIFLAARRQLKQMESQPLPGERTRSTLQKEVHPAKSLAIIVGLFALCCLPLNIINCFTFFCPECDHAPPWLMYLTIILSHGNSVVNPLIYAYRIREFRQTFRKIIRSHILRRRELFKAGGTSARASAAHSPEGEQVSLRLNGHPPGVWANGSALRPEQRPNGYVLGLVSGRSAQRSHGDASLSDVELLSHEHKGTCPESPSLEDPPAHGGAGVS
T3 sequence (P0DMS8 whole entry, looked up, one chain of several): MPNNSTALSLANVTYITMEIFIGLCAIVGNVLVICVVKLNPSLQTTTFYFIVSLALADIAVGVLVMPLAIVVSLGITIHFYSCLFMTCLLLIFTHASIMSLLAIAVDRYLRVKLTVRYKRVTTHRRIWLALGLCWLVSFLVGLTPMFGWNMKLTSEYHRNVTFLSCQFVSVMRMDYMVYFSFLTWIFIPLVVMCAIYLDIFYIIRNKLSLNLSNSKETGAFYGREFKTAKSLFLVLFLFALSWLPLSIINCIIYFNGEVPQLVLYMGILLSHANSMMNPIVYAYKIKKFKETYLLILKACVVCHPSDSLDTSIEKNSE
T3 sequence (P29274 whole entry, looked up, one chain of several): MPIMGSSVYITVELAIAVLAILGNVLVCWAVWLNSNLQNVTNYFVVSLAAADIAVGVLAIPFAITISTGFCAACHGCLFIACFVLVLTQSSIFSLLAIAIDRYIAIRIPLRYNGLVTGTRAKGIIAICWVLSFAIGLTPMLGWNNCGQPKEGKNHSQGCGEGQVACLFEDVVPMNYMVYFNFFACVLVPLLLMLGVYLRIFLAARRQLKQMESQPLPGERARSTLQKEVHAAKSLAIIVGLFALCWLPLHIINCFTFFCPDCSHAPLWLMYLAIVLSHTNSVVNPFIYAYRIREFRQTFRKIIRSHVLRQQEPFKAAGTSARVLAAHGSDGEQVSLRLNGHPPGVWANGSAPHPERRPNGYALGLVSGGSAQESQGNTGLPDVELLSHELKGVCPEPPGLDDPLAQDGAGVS
T3 sequence (P29275 whole entry, looked up, one chain of several): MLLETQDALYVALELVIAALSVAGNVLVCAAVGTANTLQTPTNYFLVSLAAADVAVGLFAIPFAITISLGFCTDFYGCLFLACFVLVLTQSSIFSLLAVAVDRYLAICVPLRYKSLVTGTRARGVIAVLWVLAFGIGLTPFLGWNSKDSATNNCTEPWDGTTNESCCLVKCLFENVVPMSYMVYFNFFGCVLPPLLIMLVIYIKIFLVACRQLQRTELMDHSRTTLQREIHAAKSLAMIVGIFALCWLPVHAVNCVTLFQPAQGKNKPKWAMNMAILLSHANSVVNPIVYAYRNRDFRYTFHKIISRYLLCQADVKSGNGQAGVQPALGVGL

The Ki is a measure of affinity in units of concentration, obtained from inhibition or displacement. Low values mean tighter binding, high ones weaker binding. With `Nc1ncnc2c1ncn2[C@@H]1O[C@H](C(=O)NC2CC2)[C@@H](O)[C@H]1O`, on Adenosine receptor A2a [1], the Ki is 8 nM.

Consider `Nc1nc(Cl)nc2c1ncn2[C@@H]1O[C@H](CO)[C@@H](O)[C@H]1O`, for which the Affinity constant in [2] was found to be 5 µM; in assay [4], 0.01 µM. The Affinity constant result in assay [3] is “inactive”. The Ki was determined as 8 nM at Adenosine receptor A2a [1] and 25 nM at Adenosine receptor A1.

As to `OC[C@H]1O[C@@H](n2cnc3c(NC4CCCCC4)ncnc32)[C@H](O)[C@@H]1O`, in assay [5], the Affinity constant result is “inactive”. Further, the Affinity constant in assay [4] amounted to 0.003 µM; in assay [6] it was 30 µM. Further, on Adenosine receptor A1, affinity was put at a Ki of 2.5 nM.

As for `CCNC(=O)[C@H]1O[C@@H](n2cnc3c(N)ncnc32)[C@H](O)[C@@H]1O`, the Affinity constant in [4] came to 0.1 µM.

For the compound `CNc1ncnc2c1ncn2[C@@H]1O[C@H](CO)[C@@H](O)[C@H]1O`, the Affinity constant in assay [4] worked out at 0.1 µM; in assay [6], 80 µM.

As to `CSC[C@H]1O[C@@H](n2cnc3c(N)ncnc32)[C@H](O)[C@@H]1O`, the Affinity constant in [6] stood at 10 µM.

As to `C[C@@H]1O[C@H](n2cnc3c(N)ncnc32)C[C@H]1O`, the Affinity constant in assay [5] came to 2 µM. Moreover, the Affinity constant result in [7] and in assay [8] was “inactive” each time.

For the compound `OC[C@H]1O[C@@H](n2cnc3c(NCc4ccccc4)ncnc32)[C@H](O)[C@@H]1O`, the Affinity constant entry in assay [5] is “inactive”. The Affinity constant in [4] came out at 0.2 µM; in assay [6], 80 µM.

`OC[C@H]1O[C@@H](n2cnc3c(Nc4ccccc4)ncnc32)[C@H](O)[C@@H]1O`: the Affinity constant entry in [5] was “inactive”. The figures for the Affinity constant in assay [4] and in assay [6] were 0.003 µM and 50 µM, respectively.

Consider `Cn1c(=O)c2[nH]c(-c3ccccc3)nc2n(C)c1=O` [8-PHENYL THEOPHYLLINE], for which, on Adenosine receptor A2a [1], affinity was put at a Ki of 400 nM.

Regarding `C[C@H](Cc1ccccc1)Nc1ncnc2c1ncn2[C@@H]1O[C@H](CO)[C@@H](O)[C@H]1O` [(R)-PIA], in assay [5], the Affinity constant result was “inactive”. Moreover, the Affinity constant is 0.003 µM in [4] and 30 µM in [6]. In addition, the Ki on Adenosine receptor A1 turned out to be 0.25 nM; on Adenosine receptor A2a [9], 3.3 nM.

Regarding `C[C@@H](Cc1ccccc1)Nc1ncnc2c1ncn2[C@@H]1O[C@H](CO)[C@@H](O)[C@H]1O` [(S)-PIA], in [5], the Affinity constant result is “inactive”. Moreover, the figures for the Affinity constant in assay [4] and in assay [6] were 0.2 µM and 100 µM, respectively. Also, the inhibitory constant (Ki) on Adenosine receptor A2a [1] came to 130 nM; at Adenosine receptor A1, 8 nM.

`Cn1c(=O)c2c(ncn2C)n(C)c1=O` [CAFFEINE]: in assay [5], the Affinity constant entry was “inactive”. In addition, the Affinity constant in [4] and in [6] was 30 µM each time. The compound also registered a Ki on Adenosine receptor A1 of 130000 nM.

As to `CC(C)Cn1c(=O)n(C)c(=O)c2[nH]cnc21` [ISOBUTYLMETHYLXANTHINE], the Ki at Adenosine receptor A2a [1] was determined as 8000 nM; on Adenosine receptor A1, 7000 nM.

Consider `CC(C)Cn1c(=O)n(C)c(=O)c2nc[nH]c21` [ISOBUTYLMETHYLXANTHINE], for which the Affinity constant result in assay [5] was “inactive”. In addition, the Ki on Adenosine receptor [10] turned out to be 3000 nM; at Adenosine receptor [11], 800 nM; on Adenosine receptor [12] it was 20000 nM. The Affinity constant in assay [4] was 2 µM; in [6], 5 µM.
